{"source": "patent US6531478B2", "about": "“Amino pyrazole derivatives useful for the treatment of obesity and other disorders” (priority 2000, dated 2003)", "data": [{"molecular_target": "T1, human neuropeptide Y5 receptor (Homo sapiens, UniProt Q15761)", "T1 construct": "expressed in transfected cells; host or cells: HEK-293, stably transfected, G-418 selected; membranes", "T1 sequence (Q15761 1-445)": "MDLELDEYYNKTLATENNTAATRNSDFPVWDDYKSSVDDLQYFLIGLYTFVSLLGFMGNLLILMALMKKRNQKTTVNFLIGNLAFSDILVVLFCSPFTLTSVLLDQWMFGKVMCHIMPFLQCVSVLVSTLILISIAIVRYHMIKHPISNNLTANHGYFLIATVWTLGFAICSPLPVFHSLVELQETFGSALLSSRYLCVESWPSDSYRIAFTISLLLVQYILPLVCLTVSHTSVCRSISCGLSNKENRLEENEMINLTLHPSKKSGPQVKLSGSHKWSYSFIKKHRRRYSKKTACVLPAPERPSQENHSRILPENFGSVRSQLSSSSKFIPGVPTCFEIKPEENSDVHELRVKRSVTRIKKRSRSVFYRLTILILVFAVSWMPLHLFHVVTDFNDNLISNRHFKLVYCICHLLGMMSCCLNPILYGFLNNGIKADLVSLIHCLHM", "test": "NPY5 HTS centrifugation assay: competition with 125I-PYY for binding to membranes of NPY5-transfected HEK-293 cells", "settings": "3 μM test compound; inhibition of 125I-PYY binding", "method": "(§1) NPY5 HTS Centrifugation Assay\n(§2) The compounds described in this invention were evaluated for binding to the human neuropeptide Y5 receptor.\n(§3) The human NPY5 receptor cDNA (Genbank Accession number U66275) was inserted into the vector pClneo (Invitrogen) and transfected into human embryonic kidney cells (HEK-293) via Calcium phosphate method (Cullen 1987). Stably transfected cells were selected with G-418 (600 ug/mL). Stably transfected cells served as the source for the membranes for the NPY5 receptor binding assay.\n(§4) NPY5-transfected HEK293 cells were grown to confluence in 150 cm^2 culture dishes. Cells were washed once with phosphate-buffered saline (Gibco Cat# 14040-133). Cells were then incubated in phosphate-buffered saline without Calcium and without Magnesium, supplemented with 2 mM EDTA. Cells were incubated for 10 minutes at room temperature and the cells were collected by repetitive pipetting. Cells were formed into pellets and frozen at −80 until needed. Frozen pellets were homogenized with a polytron at full speed for 12 seconds in a homogenization buffer (20 mM Tris HCl, 5 mM EDTA, pH 7.4). Homogenates were centrifuged for 5 minutes at 4° C. at 200 g. Supernatants were transferred to corex tubes and centrifuged for 25 minutes at 28,000 g. Pellets were re-suspended in Binding (20 mM HEPES, 10 mM NaCl, 0.22 mM KH2PO4, 1.3 mM CaCl2, 0.8 mM MgSO4, pH 7.4). Membranes were kept on ice until use.\n(§5) A competition binding assay, known to those skilled in the art, was used in which the test compounds (aminopyrazoles of formula (I) compete with ^1251I-PYY for binding to cell membranes. In simple terms, less ^125I-PYY bound to the membranes implies that the test compound is a good inhibitor (competitor). Bound ^1251I-PYY is determined by centrifugation the membranes, aspirating supernatant, washing away residual ^125I-PYY and subsequently counting the bound sample in a γ-counter.\n(§6) Procedure for Radioligand Binding Assay\n(§7) Compounds to be tested were prepared as 10× stocks in binding buffer and added first to assay tubes (RIA vials, Sarstedt). Twenty (20) μL of each 10× compound stock was pipetted into vials and 80 μL of ^125I-PYY (NEN catalog number NEX240), which had been diluted to a concentration of 200 pM in 0.25% BSA in binding buffer, was added to the compound tubes (final concentration of ^125I-PYY is 80 pM). To each tube was added 100 μL of membranes and the mixture was agitated by pipetting 2 times. Samples were incubated for 1 hr at room temperature. Aluminum cast plates (Sarstedt) containing the vials were centrifuged 10 minutes at 3200 rpm in a Sorvall RT6000. Supernatant was then aspirated. To each vial was added 400 μL PBS and the vial was then aspirated again. Vials were put in carrier polypropylene 12×75 tube and counted in gamma counter (Packard). Non-specific binding was determined in the presence of 300 nM NPY. Percent inhibition of ^125I-PYY binding was calculated by subtracting non-specific binding from the test samples (compounds of formula (I)), taking these counts and dividing by total binding, and multiplying by 100. Inhibitory concentration values (IC50) of compounds that show appreciable inhibition of ^125I-PYY binding were calculated by obtaining percent inhibition of ^125I-PYY binding values at different concentrations of the test compound, and using a graphing program such as GraphPad Prism (San Diego, Calif.) to calculate the concentration of test compound that inhibits fifty-percent of ^125I-PYY binding (Table 2). These operations are known to those skilled in the art.", "units": {"% Inh NPY5 @ 3 μM": "%"}, "values": [{"smiles": "O=C(NCc1ccccc1)c1ccc(-c2cc(NS(=O)(=O)c3ccccc3)n(-c3ccccc3)n2)cc1", "note": "[Cmpd 10]", "% Inh NPY5 @ 3 μM": 19.00}, {"smiles": "Cc1ccc(-n2nc(-c3ccc(N(S(=O)(=O)c4cc(C(F)(F)F)cc(C(F)(F)F)c4)S(=O)(=O)c4cc(C(F)(F)F)cc(C(F)(F)F)c4)cc3)cc2N)cc1", "note": "[Cmpd 40]", "% Inh NPY5 @ 3 μM": 16.00}, {"smiles": "Cc1ccc(NC(=O)c2ccc(-c3cc(NS(=O)(=O)c4ccc(C)cc4)n(-c4ccc(C)cc4)n3)cc2)cc1", "note": "[Cmpd 17]", "% Inh NPY5 @ 3 μM": 6.00}, {"smiles": "Cc1ccc(-n2nc(-c3ccc(C(=O)Nc4ccccc4)cc3)cc2NS(=O)(=O)c2ccc(C)cc2)cc1", "note": "[Cmpd 15]", "% Inh NPY5 @ 3 μM": 4.00}, {"smiles": "Cc1ccc(-n2nc(-c3ccc(N(S(=O)(=O)c4ccc(OC(F)(F)F)cc4)S(=O)(=O)c4ccc(OC(F)(F)F)cc4)cc3)cc2N)cc1", "note": "[Cmpd 29]", "% Inh NPY5 @ 3 μM": 16.00}, {"smiles": "O=C(O)c1ccc(-c2cc(NS(=O)(=O)c3ccccc3)n(-c3ccccc3)n2)cc1", "note": "[Cmpd 9]", "% Inh NPY5 @ 3 μM": 0}, {"smiles": "Cc1ccc(-n2nc(-c3ccc(NS(=O)(=O)c4cccc5c4CCNC5)cc3)cc2N)cc1", "note": "[Cmpd 61]", "% Inh NPY5 @ 3 μM": 0.00}, {"smiles": "CC(=O)Nc1ccc(S(=O)(=O)N(c2ccc(-c3cc(N)n(-c4ccc(C)cc4)n3)cc2)S(=O)(=O)c2ccc(NC(C)=O)cc2)cc1", "note": "[Cmpd 28]", "% Inh NPY5 @ 3 μM": 21.00}, {"smiles": "Cc1ccc(-n2nc(-c3ccc(N(S(=O)(=O)c4ccc(C(F)(F)F)cc4)S(=O)(=O)c4ccc(C(F)(F)F)cc4)cc3)cc2N)cc1", "note": "[Cmpd 46]", "% Inh NPY5 @ 3 μM": 21.00}, {"smiles": "Cc1ccc(-n2nc(-c3ccc(N(S(=O)(=O)c4ccc5ccccc5c4)S(=O)(=O)c4ccc5ccccc5c4)cc3)cc2N)cc1", "note": "[Cmpd 27]", "% Inh NPY5 @ 3 μM": 0.00}, {"smiles": "O=C(c1ccc(-c2cc(NS(=O)(=O)c3ccccc3)n(-c3ccccc3)n2)cc1)N1CCc2ccccc2C1", "note": "[Cmpd 13]", "% Inh NPY5 @ 3 μM": 12.00}, {"smiles": "Cc1ccc(NC(=O)c2ccc(-c3cc(NS(=O)(=O)c4ccccc4)n(-c4ccccc4)n3)cc2)cc1", "note": "[Cmpd 6]", "% Inh NPY5 @ 3 μM": 0.00}, {"smiles": "Nc1cc(-c2ccc(N(S(=O)(=O)c3cccc(C(F)(F)F)c3)S(=O)(=O)c3cccc(C(F)(F)F)c3)cc2)nn1-c1ccccn1", "note": "[Cmpd 58]", "% Inh NPY5 @ 3 μM": 0.00}, {"smiles": "Cc1ccc(-n2nc(-c3cccc(NS(=O)(=O)c4cccc(C(F)(F)F)c4)c3)cc2N)cc1", "note": "[Cmpd 69]", "% Inh NPY5 @ 3 μM": 20.00}, {"smiles": "Cc1ccc(-n2nc(-c3ccc(N(S(=O)(=O)c4cccc5ccccc45)S(=O)(=O)c4cccc5ccccc45)cc3)cc2N)cc1", "note": "[Cmpd 35]", "% Inh NPY5 @ 3 μM": 29.00}, {"smiles": "Cc1ccc(-n2nc(-c3ccc(N(S(=O)(=O)c4cccc(C(F)(F)F)c4)S(=O)(=O)c4cccc(C(F)(F)F)c4)cc3)cc2N)cc1", "note": "[Cmpd 26]", "% Inh NPY5 @ 3 μM": 16.00}, {"smiles": "Nc1cc(C(=O)Nc2ccc(Cl)c(Cl)c2)nn1-c1cccc(C(F)(F)F)c1", "note": "[Cmpd 78]", "% Inh NPY5 @ 3 μM": 81.00}, {"smiles": "Cc1ccc(NC(=O)c2ccc(-c3cc(N)n(-c4ccc(C)cc4)n3)cc2)cc1", "note": "[Cmpd 33]", "% Inh NPY5 @ 3 μM": 0.00}, {"smiles": "O=C(Nc1ccc2ccccc2c1)c1ccc(-c2cc(NS(=O)(=O)c3ccccc3)n(-c3ccccc3)n2)cc1", "note": "[Cmpd 12]", "% Inh NPY5 @ 3 μM": 2.00}]}, {"molecular_target": "T1, human neuropeptide Y5 receptor", "test": "NPY5 HTS centrifugation assay: competition with 125I-PYY for binding to membranes of NPY5-transfected HEK-293 cells", "settings": "3 μM test compound; inhibition of 125I-PYY binding; read-out: % Inh NPY5 @ 3 μM", "method": "as §1, §2, §3, §4, §5, §6, §7", "units": {"inhibition at 3 µM": "%"}, "values": [{"smiles": "COc1ccc(C(=O)Nc2ccc(-c3cc(N)n(-c4ccc(C)cc4)n3)cc2)cc1", "note": "[Cmpd 53, N-[4-[5-amino-1-(4-methylphenyl)-1H-pyrazol-3-yl]phenyl]-4-methoxy-benzamide]", "inhibition at 3 µM": 0}, {"smiles": "Cc1ccc(-n2nc(-c3ccc(NS(=O)(=O)c4cccc(C(F)(F)F)c4)cc3)cc2N)cc1", "note": "[Cmpd 39]", "inhibition at 3 µM": 95}, {"smiles": "COc1ccc(S(=O)(=O)Nc2ccc(-c3cc(N)n(-c4ccc(C)cc4)n3)cc2)cc1", "note": "[Cmpd 36]", "inhibition at 3 µM": 100}]}, {"molecular_target": "T1, human neuropeptide Y5 receptor", "test": "NPY5 HTS centrifugation assay: competition with 125I-PYY for binding to membranes of NPY5-transfected HEK-293 cells", "settings": "30 μM test compound (stated in cell); inhibition of 125I-PYY binding", "method": "as §1, §2, §3, §4, §5, §6, §7", "values": [{"smiles": "O=C(c1ccc(-c2cc(NS(=O)(=O)c3ccccc3)n(-c3ccccc3)n2)cc1)N1CCCc2ccccc21", "note": "[Cmpd 14]", "% Inh NPY5 @ 30 μM": "(26.00 @ %"}]}, {"molecular_target": "T1, human neuropeptide Y5 receptor", "test": "NPY5 HTS centrifugation assay: competition with 125I-PYY for binding to membranes of NPY5-transfected HEK-293 cells", "settings": "inhibition of 125I-PYY binding; values in nM; read-out: IC50 hNPY5", "method": "as §1, §2, §3, §4, §5, §6, §7", "units": {"IC50": "nM"}, "values": [{"smiles": "Nc1ccccc1S(=O)(=O)NCC1CCC(c2cc(N)n(-c3cccc(C(F)(F)F)c3)n2)CC1", "note": "(centres unmarked) [Cmpd 83]", "IC50": 20}, {"smiles": "CNc1ccc(S(=O)(=O)Nc2ccc(-c3cc(NC)n(-c4ccc(C)cc4)n3)cc2)cc1", "note": "[Cmpd 75, 4-(methylamino)-N-[4-[5-(methylamino)-1-(4-methylphenyl)-1H-pyrazol-3-yl]phenyl]-benzensulfonamide]", "IC50": 40}, {"smiles": "COc1ccc(S(=O)(=O)Nc2ccc(-c3cc(N)n(-c4ccccn4)n3)cc2)cc1", "note": "[Cmpd 54]", "IC50": 436}, {"smiles": "COc1ccc(S(=O)(=O)Nc2ccc(-c3cc(N)n(-c4nccc(C(F)(F)F)n4)n3)cc2)cc1", "note": "[Cmpd 86]", "IC50": 709}, {"smiles": "Cc1ccc(-n2nc(-c3ccc(NS(=O)(=O)c4ccc(Br)cc4)cc3)cc2N)cc1", "note": "[Cmpd 50]", "IC50": 58}, {"smiles": "COc1ccc(S(=O)(=O)Nc2ccc(-c3cc(N)n(-c4cccc5ccccc45)n3)cc2)cc1", "note": "[Cmpd 49]", "IC50": 48}, {"smiles": "Cc1ccc(-n2nc(-c3ccc(NS(=O)(=O)c4ccc([N+](=O)[O-])cc4)cc3)cc2N)cc1", "note": "[Cmpd 51]", "IC50": 79}, {"smiles": "Cc1ccc(-n2nc(-c3ccc(NS(=O)(=O)c4cccc(N)c4)cc3)cc2N)cc1", "note": "[Cmpd 65]", "IC50": 303}, {"smiles": "Nc1cc(-c2ccc(NS(=O)(=O)c3cccc(C(F)(F)F)c3)cc2)nn1-c1ccccn1", "note": "[Cmpd 57]", "IC50": 289}, {"smiles": "COc1ccc(S(=O)(=O)Nc2ccc(-c3cc(N)n(-c4cccc(N(C)C)c4)n3)cc2)cc1", "note": "[Cmpd 87]", "IC50": 30}, {"smiles": "Cc1ccc(-n2nc(-c3ccc(NS(=O)(=O)c4cccc(C(F)(F)F)c4)cc3)cc2N)cc1", "note": "[Cmpd 39]", "IC50": 31}, {"smiles": "Cc1ccc(S(=O)(=O)Nc2ccc(-c3cc(NS(=O)(=O)c4ccc(C)cc4)n(-c4ccccc4C)n3)cc2)cc1", "note": "[Cmpd 1]", "IC50": 200}, {"smiles": "Nc1cc(-c2ccc(NS(=O)(=O)c3ccccc3)cc2)nn1-c1ccccc1", "note": "[Cmpd 93]", "IC50": 38}, {"smiles": "COc1ccc(S(=O)(=O)Nc2ccc(-c3cc(N)n(-c4ccc(C)cc4)n3)cc2)cc1", "note": "[Cmpd 36]", "IC50": 15}, {"smiles": "Cc1ccc(-n2nc(-c3ccc(NS(=O)(=O)c4ccccc4N)cc3)cc2N)cc1", "note": "[Cmpd 64]", "IC50": 229}]}]}
